# Measured values reported in ChEMBL document CHEMBL3877302, “Design and Synthesis of a New Series of 4-Heteroarylamino-1'-azaspiro[oxazole-5,3'-bicyclo[2.2.2]octanes as α7 Nicotinic Receptor Agonists. 1. Development of Pharmacophore and Early Structure-Activity Relationship” (J Med Chem, 2016).
# The source made the active and inactive calls. No cut-off for these calls is given here.
# How the values were obtained:
# [1] = Metabolic stability in rat microsomes assessed as compound remaining measured after 10 mins; type: ADME, Microsome; conditions: read-out: Stability
# [2] = tested on: Mus musculus; assay: Cognitive enhancing effect in C57Bl/6 mouse at 0.1 to 1 mg/kg, sc administered 30 mins prior to training measured after 24 hrs by novel recognition assay; type: functional, organism-based
# [3] = Drug uptake in C57Bl/6 mouse NOR model brain at 1 mg/kg, sc measured after 0.5 hrs; type: ADME, organism-based; conditions: read-out: Drug uptake
# [4] = Drug uptake in C57Bl/6 mouse NOR model brain at 0.03 mg/kg, sc measured after 0.5 hrs; type: ADME, organism-based; conditions: read-out: Drug uptake
# [5] = Drug uptake in C57Bl/6 mouse NOR model brain at 0.1 mg/kg, sc measured after 0.5 hrs; type: ADME, organism-based; conditions: read-out: Drug uptake
# [6] = molecular target: T1, Cytochrome P450 3A4 (Homo sapiens, UniProt P08684); assay: Inhibition of human CYP3A4 using BZR as substrate; type: ADME
# [7] = Metabolic stability in mouse microsomes assessed as compound remaining measured after 10 mins; type: ADME, Microsome; conditions: read-out: Stability
# [8] = Plasma concentration in C57Bl/6 mouse NOR model at 0.1 mg/kg, sc measured after 0.5 hrs; type: ADME, organism-based
# [9] = molecular target: Cytochrome P450 2C9 (Homo sapiens, UniProt P11712); assay: Inhibition of human CYP2C9; type: ADME
# [10] = molecular target: T2, Cytochrome P450 2C8 (Homo sapiens, UniProt P10632); assay: Inhibition of human CYP2C8; type: ADME
# T2 sequence (P10632 whole entry): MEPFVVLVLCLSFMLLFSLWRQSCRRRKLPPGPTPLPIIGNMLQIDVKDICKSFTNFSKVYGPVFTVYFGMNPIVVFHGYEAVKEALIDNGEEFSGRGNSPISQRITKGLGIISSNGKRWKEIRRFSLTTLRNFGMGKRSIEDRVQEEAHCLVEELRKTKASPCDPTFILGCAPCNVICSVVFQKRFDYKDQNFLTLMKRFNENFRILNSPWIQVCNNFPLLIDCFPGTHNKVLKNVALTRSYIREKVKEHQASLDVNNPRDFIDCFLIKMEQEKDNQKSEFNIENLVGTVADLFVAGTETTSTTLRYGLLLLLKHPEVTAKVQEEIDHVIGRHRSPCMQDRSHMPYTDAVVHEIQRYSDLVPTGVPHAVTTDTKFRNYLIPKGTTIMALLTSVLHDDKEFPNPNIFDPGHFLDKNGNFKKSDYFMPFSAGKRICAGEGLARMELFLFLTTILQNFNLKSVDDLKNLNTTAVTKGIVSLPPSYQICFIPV
# [11] = Metabolic stability in human microsomes assessed as compound remaining measured after 10 mins; type: ADME, Microsome; conditions: read-out: Stability
# [12] = tested on: Mus musculus; assay: Reversal of NMDAR antagonist MK-801-induced memory deficits in C57Bl/6 mouse at 1 and 3 mg/kg, sc administered 30 mins prior to […] challenge measured after 30 mins by Y maze assay; type: functional, organism-based
# [13] = Plasma concentration in C57Bl/6 mouse NOR model at 0.3 mg/kg, sc measured after 0.5 hrs; type: ADME, organism-based
# [14] = Plasma concentration in C57Bl/6 mouse NOR model at 0.03 mg/kg, sc measured after 0.5 hrs; type: ADME, organism-based
# [15] = Fraction unbound in rat plasma; type: ADME, cell-free
# [16] = molecular target: T3, Cytochrome P450 1A2 (Homo sapiens, UniProt P05177); assay: Inhibition of human CYP1A2; type: ADME
# T3 sequence (P05177 whole entry): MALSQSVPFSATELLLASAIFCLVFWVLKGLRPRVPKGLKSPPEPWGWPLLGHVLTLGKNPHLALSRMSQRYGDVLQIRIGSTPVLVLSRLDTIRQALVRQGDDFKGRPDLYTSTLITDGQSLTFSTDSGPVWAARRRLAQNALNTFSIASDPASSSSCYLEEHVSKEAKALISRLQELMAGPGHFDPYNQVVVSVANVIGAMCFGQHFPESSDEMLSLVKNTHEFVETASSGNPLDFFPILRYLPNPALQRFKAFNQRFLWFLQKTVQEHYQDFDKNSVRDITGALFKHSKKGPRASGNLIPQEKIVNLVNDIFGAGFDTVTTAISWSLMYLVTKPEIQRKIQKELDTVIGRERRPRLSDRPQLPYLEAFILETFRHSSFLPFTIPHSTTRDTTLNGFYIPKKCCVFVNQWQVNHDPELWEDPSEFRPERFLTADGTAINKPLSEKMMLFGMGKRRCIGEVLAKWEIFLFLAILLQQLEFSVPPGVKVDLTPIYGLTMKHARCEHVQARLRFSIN
# [17] = Plasma concentration in C57Bl/6 mouse NOR model at 0.3 mg/kg, sc measured after 2 hrs; type: ADME, organism-based
# [18] = Fraction unbound in mouse plasma; type: ADME, cell-free
# [19] = Drug uptake in C57Bl/6 mouse NOR model brain at 0.3 mg/kg, sc measured after 6 hrs; type: ADME, organism-based; conditions: read-out: Drug uptake
# [20] = molecular target: Nicotinic acetylcholine receptor alpha-1/beta-1/delta/epsilon (Rattus norvegicus, UniProt P09660+P25108+P25109+P25110); assay: Agonist activity at rat alpha1beta1deltaepsilon nAChR expressed in HEK293 cells for 2 mins by FLIPR assay; type: cell-based
# [21] = Fraction unbound in human plasma; type: ADME, cell-free
# [22] = Plasma concentration in C57Bl/6 mouse NOR model at 1 mg/kg, sc measured after 0.5 hrs; type: ADME, organism-based
# [23] = molecular target: Neuronal acetylcholine receptor; alpha3/beta4 (Rattus norvegicus, UniProt P04757+P12392); assay: Agonist activity at rat alpha3beta4 nAChR expressed in HEK293 cells for 2 mins by FLIPR assay; type: cell-based
# [24] = Drug uptake in C57Bl/6 mouse NOR model brain at 0.3 mg/kg, sc measured after 2 hrs; type: ADME, organism-based; conditions: read-out: Drug uptake
# [25] = molecular target: Cytochrome P450 2C19 (Homo sapiens, UniProt P33261); assay: Inhibition of human CYP2C19; type: ADME
# [26] = molecular target: T4, Cytochrome P450 2B6 (Homo sapiens, UniProt P20813); assay: Inhibition of human CYP2B6; type: ADME
# T4 sequence (P20813 whole entry): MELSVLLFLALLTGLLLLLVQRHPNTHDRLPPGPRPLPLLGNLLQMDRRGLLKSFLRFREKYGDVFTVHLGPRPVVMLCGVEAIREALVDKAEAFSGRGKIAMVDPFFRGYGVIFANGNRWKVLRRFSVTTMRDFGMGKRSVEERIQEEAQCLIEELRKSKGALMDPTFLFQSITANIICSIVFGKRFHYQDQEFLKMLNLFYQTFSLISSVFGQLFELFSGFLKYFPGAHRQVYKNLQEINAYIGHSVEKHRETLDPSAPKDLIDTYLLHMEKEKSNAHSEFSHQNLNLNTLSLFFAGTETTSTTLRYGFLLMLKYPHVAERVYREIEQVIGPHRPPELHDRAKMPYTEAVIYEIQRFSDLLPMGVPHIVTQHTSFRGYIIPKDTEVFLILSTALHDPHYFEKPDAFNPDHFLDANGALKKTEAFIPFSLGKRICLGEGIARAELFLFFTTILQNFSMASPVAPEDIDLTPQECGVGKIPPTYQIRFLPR
# [27] = molecular target: T1, Cytochrome P450 3A4; assay: Inhibition of human CYP3A4 using BFC as substrate; type: ADME
# [28] = molecular target: Neuronal acetylcholine receptor; alpha4/beta2 (Rattus norvegicus, UniProt P09483+P12390); assay: Agonist activity at rat alpha4beta2 nAChR expressed in HEK293 cells for 2 mins by FLIPR assay; type: cell-based
# [29] = molecular target: Cytochrome P450 2D6 (Homo sapiens, UniProt P10635); assay: Inhibition of human CYP2D6; type: ADME
# [30] = tested on: Mus musculus; assay: Cognitive enhancing effect in C57Bl/6 mouse at 0.3 mg/kg, sc administered 30 mins to 6 hrs prior to training measured after 24 hrs by novel recognition assay; type: functional, organism-based
# [31] = Drug uptake in C57Bl/6 mouse NOR model brain at 0.3 mg/kg, sc measured after 0.5 hrs; type: ADME, organism-based; conditions: read-out: Drug uptake
# [32] = tested on: Mus musculus; assay: Cognitive enhancing effect in C57Bl/6 mouse administered subcutaneously for 30 mins prior to training measured after 24 hrs by novel recognition assay; type: functional; conditions: C57Bl/6, sc, read-out: MED
# [33] = Plasma concentration in C57Bl/6 mouse NOR model at 0.3 mg/kg, sc measured after 6 hrs; type: ADME, organism-based
# T1 sequence (P08684 whole entry): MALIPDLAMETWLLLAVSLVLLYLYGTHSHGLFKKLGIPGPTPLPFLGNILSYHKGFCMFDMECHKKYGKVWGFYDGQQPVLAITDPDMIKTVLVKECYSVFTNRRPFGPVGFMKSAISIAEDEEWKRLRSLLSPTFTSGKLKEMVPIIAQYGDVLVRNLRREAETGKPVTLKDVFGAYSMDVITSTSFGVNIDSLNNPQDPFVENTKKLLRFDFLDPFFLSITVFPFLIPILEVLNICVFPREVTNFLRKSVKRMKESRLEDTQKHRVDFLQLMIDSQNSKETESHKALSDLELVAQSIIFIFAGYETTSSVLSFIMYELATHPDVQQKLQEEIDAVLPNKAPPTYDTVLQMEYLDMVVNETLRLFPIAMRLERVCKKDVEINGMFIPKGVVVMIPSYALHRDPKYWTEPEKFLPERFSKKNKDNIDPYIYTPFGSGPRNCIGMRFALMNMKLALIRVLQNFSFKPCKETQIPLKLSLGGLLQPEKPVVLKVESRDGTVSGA
# Chain of Nicotinic acetylcholine receptor alpha-1/beta-1/delta/epsilon (P25109 whole entry): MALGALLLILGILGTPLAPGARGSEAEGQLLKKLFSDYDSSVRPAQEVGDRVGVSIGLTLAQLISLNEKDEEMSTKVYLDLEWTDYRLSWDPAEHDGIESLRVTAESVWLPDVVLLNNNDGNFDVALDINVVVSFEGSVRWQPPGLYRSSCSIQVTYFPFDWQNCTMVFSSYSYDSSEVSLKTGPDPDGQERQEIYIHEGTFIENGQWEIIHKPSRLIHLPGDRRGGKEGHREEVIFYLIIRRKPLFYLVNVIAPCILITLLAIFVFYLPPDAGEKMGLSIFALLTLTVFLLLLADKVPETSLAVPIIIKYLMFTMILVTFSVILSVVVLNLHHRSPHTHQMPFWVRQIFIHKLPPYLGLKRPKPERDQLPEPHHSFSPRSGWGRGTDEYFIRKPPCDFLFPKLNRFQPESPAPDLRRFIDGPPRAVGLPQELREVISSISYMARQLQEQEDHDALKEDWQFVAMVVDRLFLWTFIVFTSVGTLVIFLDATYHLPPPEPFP
# Chain of Nicotinic acetylcholine receptor alpha-1/beta-1/delta/epsilon (P25108 whole entry): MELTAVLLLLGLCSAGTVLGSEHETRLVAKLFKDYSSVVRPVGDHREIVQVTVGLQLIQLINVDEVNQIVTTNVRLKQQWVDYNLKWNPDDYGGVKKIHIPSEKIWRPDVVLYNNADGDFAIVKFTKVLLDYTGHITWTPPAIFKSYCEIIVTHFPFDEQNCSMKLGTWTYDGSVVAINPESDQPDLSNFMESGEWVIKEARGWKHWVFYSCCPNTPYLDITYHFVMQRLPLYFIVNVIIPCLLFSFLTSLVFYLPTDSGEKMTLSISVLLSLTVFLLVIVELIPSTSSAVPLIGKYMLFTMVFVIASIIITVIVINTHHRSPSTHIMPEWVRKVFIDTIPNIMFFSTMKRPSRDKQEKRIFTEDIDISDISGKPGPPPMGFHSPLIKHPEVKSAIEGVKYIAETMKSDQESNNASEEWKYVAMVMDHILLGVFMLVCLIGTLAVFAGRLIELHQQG
# Chain of Nicotinic acetylcholine receptor alpha-1/beta-1/delta/epsilon (P25110 whole entry): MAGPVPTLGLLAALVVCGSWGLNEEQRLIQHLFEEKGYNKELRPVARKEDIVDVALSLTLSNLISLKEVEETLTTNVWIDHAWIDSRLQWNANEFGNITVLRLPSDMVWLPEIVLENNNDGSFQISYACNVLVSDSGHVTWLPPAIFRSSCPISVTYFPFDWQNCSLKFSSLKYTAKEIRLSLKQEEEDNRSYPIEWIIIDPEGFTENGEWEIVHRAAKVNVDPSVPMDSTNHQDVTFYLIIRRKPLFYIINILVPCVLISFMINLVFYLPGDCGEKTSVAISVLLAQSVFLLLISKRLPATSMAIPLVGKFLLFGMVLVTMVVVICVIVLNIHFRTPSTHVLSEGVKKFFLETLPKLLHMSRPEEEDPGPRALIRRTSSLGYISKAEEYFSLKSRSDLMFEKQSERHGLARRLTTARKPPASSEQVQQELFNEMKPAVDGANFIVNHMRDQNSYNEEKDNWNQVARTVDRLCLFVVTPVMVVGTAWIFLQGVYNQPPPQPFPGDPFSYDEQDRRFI
# Chain of Nicotinic acetylcholine receptor alpha-1/beta-1/delta/epsilon (P09660 whole entry): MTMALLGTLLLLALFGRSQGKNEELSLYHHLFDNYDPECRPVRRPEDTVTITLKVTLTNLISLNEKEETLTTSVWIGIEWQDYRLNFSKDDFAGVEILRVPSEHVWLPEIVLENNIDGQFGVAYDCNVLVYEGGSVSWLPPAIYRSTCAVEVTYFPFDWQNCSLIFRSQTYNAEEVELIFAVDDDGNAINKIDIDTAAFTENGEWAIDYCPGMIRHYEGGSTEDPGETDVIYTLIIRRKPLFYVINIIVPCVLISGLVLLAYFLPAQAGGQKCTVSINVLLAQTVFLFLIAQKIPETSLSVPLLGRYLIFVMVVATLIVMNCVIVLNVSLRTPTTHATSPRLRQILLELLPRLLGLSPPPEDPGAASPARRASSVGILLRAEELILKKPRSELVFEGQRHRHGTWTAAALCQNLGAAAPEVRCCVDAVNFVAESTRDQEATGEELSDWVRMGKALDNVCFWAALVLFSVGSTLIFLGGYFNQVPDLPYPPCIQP
# Chain of Neuronal acetylcholine receptor; alpha3/beta4 (P04757 whole entry): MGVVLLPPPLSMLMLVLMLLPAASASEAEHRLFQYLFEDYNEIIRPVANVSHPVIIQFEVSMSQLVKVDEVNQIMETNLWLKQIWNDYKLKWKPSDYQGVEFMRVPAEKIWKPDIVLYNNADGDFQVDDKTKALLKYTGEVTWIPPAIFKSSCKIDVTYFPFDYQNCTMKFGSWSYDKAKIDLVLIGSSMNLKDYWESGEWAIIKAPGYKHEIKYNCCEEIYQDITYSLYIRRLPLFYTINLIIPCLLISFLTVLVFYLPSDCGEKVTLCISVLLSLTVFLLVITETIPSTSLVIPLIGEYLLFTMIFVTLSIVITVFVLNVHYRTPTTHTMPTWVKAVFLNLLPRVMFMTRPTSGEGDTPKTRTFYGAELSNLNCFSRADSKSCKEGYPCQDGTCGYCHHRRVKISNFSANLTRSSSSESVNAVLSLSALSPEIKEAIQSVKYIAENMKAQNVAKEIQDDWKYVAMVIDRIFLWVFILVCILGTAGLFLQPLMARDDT
# Chain of Neuronal acetylcholine receptor; alpha3/beta4 (P12392 whole entry): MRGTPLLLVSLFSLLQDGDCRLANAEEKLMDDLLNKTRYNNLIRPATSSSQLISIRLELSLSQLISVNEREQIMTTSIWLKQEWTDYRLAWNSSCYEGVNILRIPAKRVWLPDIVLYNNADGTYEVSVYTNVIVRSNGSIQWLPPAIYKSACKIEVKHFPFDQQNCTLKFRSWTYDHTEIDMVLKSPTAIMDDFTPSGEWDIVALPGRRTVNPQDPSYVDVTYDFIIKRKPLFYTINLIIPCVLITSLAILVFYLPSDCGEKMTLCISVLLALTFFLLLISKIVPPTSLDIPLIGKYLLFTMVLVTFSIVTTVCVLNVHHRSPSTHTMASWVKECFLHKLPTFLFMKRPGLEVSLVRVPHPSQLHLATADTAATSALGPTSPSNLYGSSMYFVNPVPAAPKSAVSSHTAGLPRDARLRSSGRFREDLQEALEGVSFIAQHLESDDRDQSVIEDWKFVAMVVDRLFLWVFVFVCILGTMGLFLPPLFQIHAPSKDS
# Chain of Cytochrome P450 2C19 (P33261 whole entry): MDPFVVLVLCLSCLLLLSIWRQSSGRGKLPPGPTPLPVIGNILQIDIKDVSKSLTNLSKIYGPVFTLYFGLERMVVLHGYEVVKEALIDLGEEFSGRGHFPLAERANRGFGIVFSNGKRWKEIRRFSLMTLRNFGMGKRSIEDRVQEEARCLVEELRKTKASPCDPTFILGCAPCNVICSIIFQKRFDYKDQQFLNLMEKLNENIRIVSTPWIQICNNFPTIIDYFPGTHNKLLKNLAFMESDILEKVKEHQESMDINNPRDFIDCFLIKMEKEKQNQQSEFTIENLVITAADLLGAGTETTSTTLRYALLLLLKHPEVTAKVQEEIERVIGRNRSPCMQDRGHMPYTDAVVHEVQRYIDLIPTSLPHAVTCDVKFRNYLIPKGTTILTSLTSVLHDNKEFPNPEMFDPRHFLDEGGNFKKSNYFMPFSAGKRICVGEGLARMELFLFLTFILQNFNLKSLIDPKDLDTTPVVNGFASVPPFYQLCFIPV
# Chain of Cytochrome P450 2C9 (P11712 whole entry): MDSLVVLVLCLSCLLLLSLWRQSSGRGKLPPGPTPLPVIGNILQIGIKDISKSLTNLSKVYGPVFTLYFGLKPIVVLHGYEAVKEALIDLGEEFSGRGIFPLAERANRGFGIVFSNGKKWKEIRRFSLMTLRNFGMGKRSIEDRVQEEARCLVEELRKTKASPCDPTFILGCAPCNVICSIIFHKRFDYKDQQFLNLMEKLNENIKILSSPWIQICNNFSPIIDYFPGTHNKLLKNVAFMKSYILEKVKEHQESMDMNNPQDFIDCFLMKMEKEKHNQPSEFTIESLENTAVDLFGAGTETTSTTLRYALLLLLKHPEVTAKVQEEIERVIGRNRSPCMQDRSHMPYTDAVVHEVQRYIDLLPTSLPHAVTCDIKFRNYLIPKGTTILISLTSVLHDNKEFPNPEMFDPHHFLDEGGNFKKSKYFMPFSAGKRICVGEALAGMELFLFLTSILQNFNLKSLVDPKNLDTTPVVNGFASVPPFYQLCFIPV
# Chain of Cytochrome P450 2D6 (P10635 whole entry): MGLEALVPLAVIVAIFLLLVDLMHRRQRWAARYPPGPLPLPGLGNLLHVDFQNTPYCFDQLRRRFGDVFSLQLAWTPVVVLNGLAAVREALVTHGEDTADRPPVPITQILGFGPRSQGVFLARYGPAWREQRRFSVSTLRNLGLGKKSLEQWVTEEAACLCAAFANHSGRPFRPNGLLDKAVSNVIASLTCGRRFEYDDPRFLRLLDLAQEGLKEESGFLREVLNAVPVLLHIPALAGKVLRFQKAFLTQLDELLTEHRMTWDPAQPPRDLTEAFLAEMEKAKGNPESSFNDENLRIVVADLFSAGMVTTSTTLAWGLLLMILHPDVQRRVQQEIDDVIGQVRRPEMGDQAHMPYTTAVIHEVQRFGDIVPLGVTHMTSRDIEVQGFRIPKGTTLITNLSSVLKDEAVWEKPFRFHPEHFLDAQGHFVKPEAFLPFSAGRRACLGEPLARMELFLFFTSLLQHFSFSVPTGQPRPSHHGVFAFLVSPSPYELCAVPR
structure (smiles),measurement,setting,value
c1ccc2cc(NC3=NC[C@@]4(CN5CCC4CC5)O3)ncc2c1,remaining at 10 min,[1],89%
same,Activity,[2],Active
same,concentration at 0.5 h,[3],744 nM
same,concentration at 0.5 h,[4],19 nM
same,concentration at 0.5 h,[5],57 nM
same,IC50,[6],> 40 µM
same,remaining at 10 min,[7],1%
same,concentration at 0.5 h,[8],16 nM
same,IC50,[9],> 40 µM
same,IC50,[10],> 40 µM
same,remaining at 10 min,[11],96%
same,Activity,[12],Active
same,concentration at 0.5 h,[13],43 to 69 nM
same,concentration at 0.5 h,[14],4 nM
same,fraction unbound,[15],0.269
same,IC50,[16],> 40 µM
same,concentration at 2 h,[17],26 nM
same,fraction unbound,[18],0.23
same,concentration at 6 h,[19],18 nM
same,EC50,[20],> 100 µM
same,fraction unbound,[21],0.247
same,concentration at 0.5 h,[22],184 nM
same,EC50,[23],> 100 µM
same,concentration at 2 h,[24],96 nM
same,IC50,[25],> 40 µM
same,IC50,[26],> 40 µM
same,IC50,[27],> 40 µM
same,EC50,[28],> 100 µM
same,IC50,[29],> 40 µM
same,Activity,[30],Active
same,concentration at 0.5 h,[31],155 to 182 nM
same,minimal effective dose,[32],0.1 mg/kg
same,concentration at 6 h,[33],9 nM
